Assay results reported in patent US20260042772A1, “FURO PYRIMIDINE DERIVATES” (Merck Patent GmbH, priority 2022, published 2026).
Like-named read-outs stand apart in the source and are kept apart here.

Tests used:
[1] = tested on: P. vivax liver-stage schizonts; experiment: In vitro P. vivax liver-stage assay in primary human hepatocytes, radical cure mode: schizonts; format: cell-based; conditions: Plasmodium vivax, Hepatocyte, infected primary human hepatocytes, read-out: Pv Schizont IC50
Experimental: (§1) Compound efficacy against P. vivax liver-stage schizonts and hypnozoites is evaluated in infected primary human hepatocytes (PHHs). Compound screening is performed in 384-well plates, in a 12-point dose response, from 50 μM. All compounds are tested in radical cure mode (RCM). PHHs are seeded onto 384-well plates two days prior to P. vivax sporozoite infection. In RCM, compounds are added to the culture for three days, from day 5 post infection, in duplicate wells. Nigericin and a PI4K inhibitor (KDU691) are used as positive controls in each assay, while solvent (DMSO) without added compound serves as a negative control. Daily medium changes are performed, and the culture is fixed on day twelve post infection to ensure complete parasite clearance. Fixed cells are permeabilized and stained with an anti-UIS4 primary antibody and a fluorescent secondary antibody. Liver-stage schizonts and hypnozoites are then quantified by High Content Imaging. Roth, A., et al. A comprehensive model for assessment of liver stage therapies targeting Plasmodium vivax and Plasmodium falciparum. Nat. Commun. 2018, 9(1), 1837. doi.org/10.1038/s41467-018-04221-9.

[2] = tested on: P. vivax liver-stage hypnozoites; experiment: In vitro P. vivax liver-stage assay in primary human hepatocytes, radical cure mode: hypnozoites; format: cell-based; conditions: Plasmodium vivax, Hepatocyte, infected primary human hepatocytes, read-out: Pv Hypnozoite IC50
Experimental: as §1

[3] = tested on: chloroquine sensitive (CQS) strain (NF54) of P. falciparum; experiment: In vitro antiplasmodial activity, Assay A (parasite lactate dehydrogenase assay); format: cell-based; conditions: Plasmodium falciparum
Experimental: Test samples were screened for in vitro antiplasmodial activity against a chloroquine sensitive (CQS) strain (NF54) of the malaria parasite P. falciparum. Continuous in vitro cultures of asexual erythrocyte stages of P. falciparum were maintained using a modified version of the method of Trager and Jensen (1976).1 Quantitative assessment of antiplasmodial activity in vitro was determined via the parasite lactate dehydrogenase assay using a modified method described by Makler (1993). The test samples were tested in triplicate on two separate occasions. Further dilutions were prepared in complete medium on the day of the experiment. Samples were tested as a suspension if not completely dissolved. Chloroquine and artesunate were used as the reference drugs. A full dose-response were performed starting at a concentration of 3000 nM, which is then serially diluted 2-fold in complete medium to give 10 concentrations; with the lowest concentration being approximately 6 nM. The same dilution techniques were used for all samples. References were tested at a starting concentration of 1000 ng/mL. The highest concentration of solvent to which the parasites were exposed has no measurable effect on the parasite viability (data not shown).

[4] = tested on: CQC sensitive strain (NF54) of P. falciparum; experiment: In vitro antiplasmodial activity, Assay B (as described by Vennerstrom et al. 2004); format: cell-based; conditions: Plasmodium falciparum; NF54, Vennerstrom et al. method
Experimental: Compounds were screened against CQC sensitive strain (NF54) of P. falciparum in vitro as described by Vennerstrom et al. (2004). A full dose-response were performed starting at a concentration of 3000 nM, which is then serially diluted 2-fold in complete medium to give 10 concentrations; with the lowest concentration being approximately 6 nM. The same dilution techniques were used for all samples. References were tested at a starting concentration of 1000 ng/mL. The highest concentration of solvent to which the parasites were exposed has no measurable effect on the parasite viability (data not shown).

[5] = tested on: sensitive (NF54) strains of P. falciparum; experiment: In vitro P. falciparum assay, modified [3H]hypoxanthine incorporation assay; format: cell-based; conditions: Plasmodium falciparum, NF54 strain
Description: Compounds according to the present invention were screened against sensitive (NF54) strains of P. falciparum in vitro using the modified [3H]hypoxanthine incorporation assay. (Vennerstrom, J. L.; Arbe-Barnes, S.; Brun, R.; Charman, S. A.; Chiu, F. C. K.; Chollet, J.; Dong, Y.; Dorn, A.; Hunziker, D.; Matile, H.; McIntosh, K.; Padmanilayam, M.; Tomas, J. S.; Scheurer, C.; Scorneaux, B.; Tang, Y.; Urwyler, H.; Wittlin, S. and Charman, W. N. Identification of an Antimalarial Synthetic Trioxolane Drug Development Candidate. Nature, 2004, 430, 900-904.).
Compound concentrations at which growth of P. falciparum was inhibited by 50% compared to untreated controls was measured in nM (IC50).
Compound concentrations at which growth of P. falciparum was inhibited by 50% compared to untreated controls was measured in nM (IC50) as described above (PfNF54 IC50 (nM)).

human PI4Kβ (HuPI4Kβ) = human PI4Kβ (HuPI4Kβ) (Homo sapiens (Human), UniProt Q9UBF8); experiment: HuPI4Kβ lipid kinase inhibition, ADP-Glo Kinase Assay; format: biochemical; conditions: recombinant enzyme
Experimental: To further test the impact of compounds according to the present invention on human PI4Kβ, HuP[…]β inhibition was tested for selected compounds and contrasted with the results for inhibiting PfNF54 strains as described in the example above. The lipid kinase reaction is performed by incubating lipid substrate (PI:3PS or PIP2:3PS) with a recombinant enzyme and ATP, and the kinase activity is measured using the ADP-GloTM Kinase Assay. First, the kinase reaction is terminated, and any ATP remaining after the reaction is depleted, leaving only ADP. Then the Kinase Detection Reagent is added to convert ADP to ATP, which is used in a coupled luciferin/luciferase reaction. The luminescent output is measured and is correlated with kinase activity. The assays can be performed in 96- or 384-well plates and can be used for enzyme characterization, inhibitor screening or compound profiling. Results measuring the effect of compounds on HuP[…]β are reported in table 2 in nM (IC50) describing the concentration necessary to inhibit 50% of the enzyme's activity (HuP[…]β IC50 (nM)).

[6] = [3H]hypoxanthine incorporation, read-out: In vitro P. falciparum growth inhibition IC50
[7] = growth inhibition, Table 2, read-out: PfNF54 IC50

human PI4Kβ (HuPI4Kβ), sequence (Q9UBF8 whole entry): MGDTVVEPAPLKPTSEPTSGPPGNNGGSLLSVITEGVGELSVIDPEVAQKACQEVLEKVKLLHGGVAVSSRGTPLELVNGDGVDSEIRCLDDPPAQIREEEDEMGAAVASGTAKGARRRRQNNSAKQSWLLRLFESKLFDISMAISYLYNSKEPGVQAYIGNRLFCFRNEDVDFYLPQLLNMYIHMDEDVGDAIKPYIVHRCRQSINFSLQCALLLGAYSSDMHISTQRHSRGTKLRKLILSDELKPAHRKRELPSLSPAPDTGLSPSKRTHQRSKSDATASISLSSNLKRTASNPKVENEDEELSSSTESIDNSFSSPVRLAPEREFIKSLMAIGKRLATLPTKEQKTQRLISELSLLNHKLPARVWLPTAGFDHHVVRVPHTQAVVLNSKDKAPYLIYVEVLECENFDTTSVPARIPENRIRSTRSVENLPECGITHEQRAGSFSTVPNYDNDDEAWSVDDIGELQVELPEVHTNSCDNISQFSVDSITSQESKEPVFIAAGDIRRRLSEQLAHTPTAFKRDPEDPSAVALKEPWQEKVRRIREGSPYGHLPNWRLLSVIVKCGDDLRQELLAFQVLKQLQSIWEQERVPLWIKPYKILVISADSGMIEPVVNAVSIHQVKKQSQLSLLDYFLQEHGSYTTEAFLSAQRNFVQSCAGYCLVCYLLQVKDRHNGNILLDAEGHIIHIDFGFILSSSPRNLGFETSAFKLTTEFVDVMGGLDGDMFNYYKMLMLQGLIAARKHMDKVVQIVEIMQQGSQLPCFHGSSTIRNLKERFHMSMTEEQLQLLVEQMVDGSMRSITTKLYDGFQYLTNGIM

IC50 [3] | IC50 [4] | IC50 (human PI4Kβ (HuPI4Kβ)) | Compound | IC50 [1] | IC50 [2] | IC50 [5, 6] | IC50 [5, 7]
15 to 50 nM | 15 to 50 nM |  | CC(C)(O)c1cccc(-c2ncnc3cc(-c4ccc(C(=O)O)cc4)oc23)c1F [Compound D201, 4-(4-(2-fluoro-3-(2-hydroxypropan-2-yl)phenyl)furo[3,2-d]pyrimidin-6-yl)benzoic acid] | < 15 nM | 15 to 50 nM |  | 
 | < 15 nM |  | CN1CCN(C(=O)c2ccc(-c3cc4ncnc(-c5cccc(C(C)(C)O)c5F)c4o3)cc2)CC1 [Compound D204, (4-(4-(2-fluoro-3-(2-hydroxypropan-2-yl)phenyl)furo[3,2-d]pyrimidin-6-yl)phenyl)(4-methylpiperazin-1-yl)methanone] |  |  | < 10 nM | 
< 15 nM |  |  | CC(C)(O)c1cccc(-c2ncnc3cc(-c4ccc([S@](C)(=N)=O)cc4)oc23)c1F [Compound D210, (R)-(4-(4-(2-fluoro-3-(2-hydroxypropan-2-yl)phenyl)furo[3,2-d]pyrimidin-6-yl)phenyl)(imino)(methyl)-λ^6-sulfanone] |  |  | < 10 nM | 
< 15 nM | < 15 nM | 100 to 500 nM | CC(C)(O)c1cccc(-c2ncnc3cc(-c4ccc(C(=O)N5C[C@@H]6C[C@H]5CO6)cc4)oc23)c1F [Compound D197, ((1S,4S)-2-oxa-5-azabicyclo[2.2.1]heptan-5-yl)(4-(4-(2-fluoro-3-(2-hydroxypropan-2-yl)phenyl)furo[3,2-d]pyrimidin-6-yl)phenyl)methanone] |  |  | < 10 nM | < 10 nM
 |  | > 500 nM | CC(C)(O)c1cc(-c2ncnc3cc(-c4ccc(C(=O)N5CCOCC5)cc4)oc23)ccn1 [Compound C74, (4-{4-[2-(1-Hydroxy-1-methyl-ethyl)-pyridin-4-yl]-furo[3,2-d]pyrimidin-6-yl}-phenyl)-morpholin-4-yl-methanone] |  |  |  | 10 to 50 nM
< 15 nM |  |  | CC(C)(O)c1cccc(-c2ncnc3cc(-c4ccc(S5(=O)=NCCC5)cc4)oc23)c1F (centres unmarked) [Compound D212, 1-(4-(4-(2-fluoro-3-(2-hydroxypropan-2-yl)phenyl)furo[3,2-d]pyrimidin-6-yl)phenyl)-4,5-dihydro-3H-isothiazole 1-oxide] |  |  | < 10 nM | 
< 15 nM | < 15 nM | 100 to 500 nM | CC(C)(O)c1cccc(-c2ncnc3cc(-c4ccc(C(=O)N5CCOCC5)cc4)oc23)c1F [Compound D183, (4-(4-(2-fluoro-3-(2-hydroxypropan-2-yl)phenyl)furo[3,2-d]pyrimidin-6-yl)phenyl)(morpholino) methanone] | < 15 nM | < 15 nM | < 10 nM | < 10 nM
< 15 nM |  |  | CC(C)(O)c1cccc(-c2ncnc3cc(-c4ccc([S@@](C)(=N)=O)cc4)oc23)c1F [Compound D209, (S)-(4-(4-(2-fluoro-3-(2-hydroxypropan-2-yl)phenyl)furo[3,2-d]pyrimidin-6-yl)phenyl)(imino)(methyl)-λ^6-sulfanone] |  |  | < 10 nM | 
< 15 nM | < 15 nM |  | CC(C)(O)c1cccc(-c2ncnc3cc(-c4ccc(S(C)(=N)=O)cc4)oc23)c1F (centres unmarked) [Compound D203, (4-(4-(2-fluoro-3-(2-hydroxypropan-2-yl)phenyl)furo[3,2-d]pyrimidin-6-yl)phenyl)(imino)(methyl)-λ6-sulfanone] | < 15 nM | 15 to 50 nM | < 10 nM | 

Continued, compound first:

Compound | IC50 [3] | IC50 [4] | IC50 (human PI4Kβ (HuPI4Kβ)) | IC50 [1] | IC50 [2] | IC50 [5, 6] | IC50 [5, 7]
CC(C)(O)c1cccc(-c2ncnc3cc(-c4ccc(S(C)(=O)=O)cc4)oc23)c1F [Compound D149, 2-(2-fluoro-3-(6-(4-(methylsulfonyl)phenyl)furo [3,2-d]pyrimidin-4-yl)phenyl)propan-2-ol] | < 15 nM | < 15 nM | 100 to 500 nM | < 15 nM | < 15 nM | < 10 nM | < 10 nM
CN1CCN(C(=O)c2ccc(-c3cc4ncnc(-c5ccnc(C(C)(C)O)c5)c4o3)cc2)CC1 [Compound C77, 2-(4-{6-[4-(4-methylpiperazine-1-carbonyl)phenyl]furo[3,2-d]pyrimidin-4-yl}pyridin-2-yl)propan-2-ol] |  |  | > 500 nM |  |  |  | 10 to 50 nM
CC(C)(O)c1cc(-c2ncnc3cc(-c4ccc(S(C)(=O)=O)cc4)oc23)cc(F)n1 [Compound D150, 2-(6-fluoro-4-(6-(4-(methylsulfonyl)phenyl)furo [3,2-d]pyrimidin-4-yl)pyridin-2-yl)propan-2-ol] | > 50 nM | 15 to 50 nM |  |  |  | 10 to 50 nM | 
CC(C)(O)c1cc(-c2ncnc3cc(-c4ccc(S(C)(=O)=O)cc4)oc23)ccn1 [Compound D213, 2-(4-(6-(4-(methylsulfonyl)phenyl)furo [3,2-d]pyrimidin-4-yl)pyridin-2-yl)propan-2-ol] |  |  |  | < 15 nM | > 50 nM | 10 to 50 nM | 
C[C@@H]1CN(C(=O)c2ccc(-c3cc4ncnc(-c5ccnc(C(C)(C)O)c5)c4o3)cc2)C[C@H](C)O1 [Compound C76, 2-[4-(6-{4-[(2R,6S)-2,6-dimethylmorpholine-4-carbonyl]phenyl}furo[3,2-d]pyrimidin-4-yl)pyridin-2-yl]propan-2-ol] |  |  | > 500 nM |  |  |  | < 10 nM
C[C@@H]1COCCN1C(=O)c1ccc(-c2cc3ncnc(-c4ccnc(C(C)(C)O)c4)c3o2)cc1 [Compound C75, (4-{4-[2-(1-Hydroxy-1-methyl-ethyl)-pyridin-4-yl]-furo[3,2-d]pyrimidin-6-yl}-phenyl)-((R)-3-methyl-morpholin-4-yl)-methanone] |  |  | > 500 nM |  |  |  | < 10 nM
CC(C)(O)c1cccc(-c2ncnc3cc(-c4ccc(S5(=O)=NCCCC5)cc4)oc23)c1F (centres unmarked) [Compound D211, 1-(4-(4-(2-fluoro-3-(2-hydroxypropan-2-yl)phenyl)furo[3,2-d]pyrimidin-6-yl)phenyl)-3,4,5,6-tetrahydro-1,2-thiazine 1-oxide] |  |  |  |  |  | < 10 nM | 
CC(C)(O)c1cc(-c2ncnc3cc(-c4ccc(C5(C(=O)N6C[C@H]7C[C@@H]6CO7)CC5)cc4)oc23)ccn1 [Compound P24, ((1R,4R)-2-oxa-5-azabicyclo[2.2.1]heptan-5-yl)(1-(4-(4-(2-(2-hydroxypropan-2-yl)pyridin-4-yl)furo[3,2-d]pyrimidin-6-yl)phenyl)cyclopropyl) methanone] | > 50 nM | > 50 nM |  |  |  |  | 
